These results are taken from PMC13326014 (Advanced Science, 2026).

In data set [1] the test system is INS‐1E β‐cells. The data set is described as follows: CellTiter‐Glo ATP viability, exogenous hIAPP oligomers. To be noted: 48 h, 16.7 mM glucose. How it is done:
Dried hIAPP or rIAPP peptide (0.5 mg) was reconstituted in 10 mM phosphate‐buffered saline (PBS, pH 7.4) with 2% DMSO and 2 mM sodium azide to a final concentration of 300 µM. rIAPP was included as a non‐amyloidogenic control peptide. After centrifugation at 16 000 x g for 50 min at 4°C to remove preformed aggregates, the supernatant (designated as “time zero”)—primarily populated by monomers—was used to initiate amyloidogenesis. Samples were vortexed and incubated at 25°C for 7 days without agitation to allow gradual formation of oligomers and fibrils. […] Aliquots were collected at different time points for biochemical characterization and β‐cells assays. […]
The fusion peptide was N‐terminally biotinylated and the two peptides were separated by two glycine residues as flexible linkers to minimize steric hindrance: Biotin‐[…]. • – Cell culture . […] Viability was assessed using the CellTiter‐Glo Luminescent Cell Viability Assay (Promega, Madison, WI, USA), which quantifies ATP content as an indicator of metabolically active cells, and AlamarBlue (Invitrogen, Thermo Fisher), based on the reduction of resazurin to the fluorescent product resorufin in metabolically active cells, following the manufacturer's instructions. Luminescence (CellTiter‐Glo) and fluorescence (AlamarBlue; Ex 560 nm / Em 590 nm) were recorded using a FLUOstar Omega microplate reader (BMG LABTECH). […]

The subject of data set [2] is INS‐1E β‐cells. The data set is described as follows: ICC of Antp‐QBP1 uptake (anti‐biotin) in INS‐1E β‐cells. Type of data set: cell-based, rat. Particulars: 48 h; for anti‐biotin (Red‐647) fluorescence intensity per cell: uptake by ICC. How it is done:
(§1) Cells were seeded in 24‐well plates (Corning, cat. #3526) on 12 mm coverslips pre‐treated with 1 mg/mL poly‐D‐lysine (Merck, cat. #P2636) in borate buffer (pH 8.0) at a density of 200,000 cells/mL. […] Primary antibodies against hIAPP (rabbit anti‐hIAPP, 1:400; Sigma‐Aldrich), biotin (goat anti‐biotin, 1:200; Invitrogen, cat. # 31852), oligomers (A11, 1:400, Invitrogen, cat. # AHB0052) and fibrils (OC, 1:200, Millipore, cat. # AB2286) were applied overnight at 4°C. Fluorophore‐conjugated secondary antibodies (Invitrogen) were added for 1 h at RT in darkness, followed by DAPI nuclear staining for 15 min. Coverslips were mounted with ProLong Gold (Life Technologies) and imaged using either a Leica DMI 6000 fluorescence microscope or a Leica Stellaris 8 stimulated emission depletion (STED) super‐resolution microscope, both equipped with a 40× oil‐immersion objective.
ThT‐stained and ICC samples were imaged using a Leica Stellaris 8 STED super‐resolution confocal microscope (Leica Microsystems, Germany). For ThT imaging, samples in Ibidi μ‐Slide 4 Well ibiTreat coverslips were excited at 488 nm and emission was collected between 509–580 nm. For ICC, fluorophores were excited at 405 nm (DAPI; 420–480 nm, HyD S1), 488 nm (Alexa Fluor 488/FITC; 500–550 nm, HyD S2) and 653 nm (Alexa Fluor 647; 665–750 nm, HyD X3), all acquired sequentially in counting mode to prevent spectral overlap. […] Z‐stacks were collected in optimized mode to generate 3D reconstructions of ThT fluorescence and ICC labeling. Image processing and quantitative analysis were conducted using ImageJ/Fiji (NIH, USA). Specifically, a custom Fiji macro based on the “Find Maxima” algorithm was implemented to detect local intensity peaks across the selected fluorescence channels. Fluorescence intensity per cell (a.u.) was calculated as the total signal per field divided by the number of DAPI‐positive nuclei, and the number of fluorescence spots per cell was defined as total local maxima per field normalized to nuclei count. […]

The test system of data set [3] is INS‐1E β‐cells. The data set is described as follows: AlamarBlue metabolic activity, exogenous hIAPP oligomers. How it is done: Dried hIAPP or rIAPP peptide (0.5 mg) was reconstituted in 10 mM phosphate‐buffered saline (PBS, pH 7.4) with 2% DMSO and 2 mM sodium azide to a final concentration of 300 µM. rIAPP was included as a non‐amyloidogenic control peptide. After centrifugation at 16 000 x g for 50 min at 4°C to remove preformed aggregates, the supernatant (designated as “time zero”)—primarily populated by monomers—was used to initiate amyloidogenesis. Samples were vortexed and incubated at 25°C for 7 days without agitation to allow gradual formation of oligomers and fibrils. […] Aliquots were collected at different time points for biochemical characterization and β‐cells assays. For β‐cell assays involving extracellular hIAPP oligomers, samples were sonicated before use to disrupt early fibrils and enrich for oligomeric species.
The fusion peptide was N‐terminally biotinylated and the two peptides were separated by two glycine residues as flexible linkers to minimize steric hindrance: Biotin‐[…]. • – Cell culture . […] Viability was assessed using the CellTiter‐Glo Luminescent Cell Viability Assay (Promega, Madison, WI, USA), which quantifies ATP content as an indicator of metabolically active cells, and AlamarBlue (Invitrogen, Thermo Fisher), based on the reduction of resazurin to the fluorescent product resorufin in metabolically active cells, following the manufacturer's instructions. Luminescence (CellTiter‐Glo) and fluorescence (AlamarBlue; Ex 560 nm / Em 590 nm) were recorded using a FLUOstar Omega microplate reader (BMG LABTECH). Morphological changes were monitored by phase‐contrast microscopy (Leitz DM IRB, Leica, Germany) equipped with a Peltier temperature controller (Linkam, UK) set to 37°C and a Leica K5 camera. Images from at least three fields per condition were acquired at 10× and 20× magnification and analyzed with Leica LAS AF Lite software.
A general note: The colour change of resazurin is a common sign of viable cells or microbes.

The test system of another data set is INS‐1E‐Ct cells. The data set is described as follows: CellTiter‐Glo ATP viability, empty‐vector control cells. To be noted: Antp‐QBP1 5–20 µM, 48 h. It counts as cell-based, rat. An excerpt:
(§2) Rat insulinoma–derived pancreatic β‐cell lines (INS‐1E, INS‐1E‐hIAPP, and INS‐1E‐Ct) were kindly provided by Dr. Anna Novials (IDIBAPS, Barcelona) and characterized as previously described. INS‐1E‐hIAPP cells, which stably express human IAPP, were used as an overexpression model, whereas INS‐1E‐Ct cells transfected with an empty vector served as controls.
• – hIAPP overexpression conditions .

A further data set relates to INS‐1E‐hIAPP cells. Nature of the data set: ICC of Antp‐QBP1 uptake in INS‐1E‐hIAPP cells. It counts as cell-based, rat. To be noted: Antp‐QBP1 10 µM, 48 h. The method, then: as §2, §1
Another data set has as its system Rin1056A β‐cells. Particulars: cited from earlier work.
Data set [4] relates to hIAPP‐induced cytotoxicity. Particulars: cited from earlier work.
The target of a further data set is T1, hIAPP (Homo sapiens, UniProt P10997).
T1 construct: hIAPP (1–37; cat. # RP11278); purchased GenScript (Netherlands) RP11278; host or cells: chemical synthesis
T1 sequence (P10997 34-70): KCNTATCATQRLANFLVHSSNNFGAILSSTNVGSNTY
The data set is described as follows: 1D 1H NMR loss of hIAPP signal (oligomerization kinetics). Type of data set: biochemical. To be noted: 50 µM hIAPP, three‐fold excess (150 µM) inhibitor, PBS, 37°C. The method, then:
• – hIAPP/QBP1 interaction experiments. 1D ^1H and 2D ^1H‐^1H total correlation spectroscopy (TOCSY) (mixing time = 60 ms) and 2D ^1H‐^1H nuclear Overhauser effect spectroscopy (NOESY) (mixing times = 80 and 250 ms) spectra were recorded at 10°C in 90% H2O/ 10% D2O with 1 mM K2HPO4 and 1 mM sodium acetate buffer (pH 5.5) on 100 µM hIAPP (pre‐monomerized in a small volume of hexadeuterated DMSO) on a Bruker 800 MHz (^1H) spectrometer equipped with a ^1H, ^13C, ^15N cryoprobe, Neo console and z‐gradients. These conditions were chosen because they were previously reported to greatly slow the aggregation of hIAPP, affording time to allow the spectra to be recorded. The solutions also contained 100 µM DSS as the internal chemical shift reference. Spectra were assigned with the aid of the program POKY [62], and the assignments have been deposited in the BMRB database; with access code = 53405. […] The spectra were then analyzed for changes which could reveal atomic‐level details on the interaction between hIAPP and QBP1. • – hIAPP aggregation experiments. A second set of NMR experiments were performed in PBS (90% H2O/ 10% D2O) at 37°C. […] These experiments were performed on a Bruker 600 MHz (^1H) spectrometer equipped with a ^1H, ^13C, ^15N, ^31P cryoprobe, Neo console, and z‐gradients. The final sample pH was verified in situ based on the phosphate ^3 ^1P chemical shift.

Setting [5] is: peptide alone, 48 h, Alamar Blue HS.

Where two headings read alike, the source gives them in different places. Peptide text beside a SMILES is read from it.

Consider `CC[C@H](C)[C@H](NC(=O)CNC(=O)[C@@H]1CCCN1C(=O)[C@H](Cc1c[nH]c2ccccc12)NC(=O)[C@H](Cc1c[nH]c2ccccc12)NC(=O)[C@H](CCCCN)NC(=O)[C@H](Cc1c[nH]c2ccccc12)NC(=O)CNC(=O)CNC(=O)[C@H](CCCCN)NC(=O)[C@H](CCCCN)NC(=O)[C@H](Cc1c[nH]c2ccccc12)NC(=O)[C@H](CCCCN)NC(=O)[C@H](CCSC)NC(=O)[C@H](CCCNC(=N)N)NC(=O)[C@H](CCCNC(=N)N)NC(=O)[C@H](CC(N)=O)NC(=O)[C@H](CCC(N)=O)NC(=O)[C@H](Cc1ccccc1)NC(=O)[C@H](Cc1c[nH]c2ccccc12)NC(=O)[C@@H](NC(=O)[C@H](CCCCN)NC(=O)[C@@H](NC(=O)[C@H](CCC(N)=O)NC(=O)[C@H](CCCNC(=N)N)NC(=O)CCCC[C@@H]1SC[C@@H]2NC(=O)N[C@@H]21)[C@@H](C)CC)[C@@H](C)CC)C(=O)N[C@@H](Cc1ccccc1)C(=O)O` [Antp‐QBP1], for which the “effect of peptide alone on ATP levels” value in the data set with INS‐1E β‐cells [1] is “did not alter ATP levels”. Also, in the data set on INS‐1E β‐cells [2] (10 µM Antp‐QBP1 alone or with 10 µM hIAPP), the “number of intracellular Red‐647 fluorescent spots per cell vs hIAPP alone” value is recorded as “significantly increased”. In addition, the “anti‐biotin (Red‐647) fluorescence intensity per cell” value in the data set with INS‐1E β‐cells [2] (10 µM Antp‐QBP1 alone) is 400–600 a.u./cell; in the data set with INS‐1E β‐cells [2] (10 µM Antp‐QBP1 with 10 µM hIAPP oligomers), ~200 a.u./cell. In the data set with INS‐1E β‐cells [3] (setting [5]), the “effect of peptide alone on metabolic activity” value (from here on “effect … on metabolic activity”) was “no significant effect”. The “effect on ATP levels in control (Ct) cells” value in the data set with INS‐1E‐Ct cells is reported as “did not alter ATP levels”. Besides, the “intracellular delivery by immunostaining” value in the data set on INS‐1E‐hIAPP cells is on record as “efficient intracellular delivery”.
With `CC[C@H](C)[C@H](NC(=O)CNC(=O)[C@@H]1CCCN1C(=O)[C@H](Cc1c[nH]c2ccccc12)NC(=O)[C@H](Cc1c[nH]c2ccccc12)NC(=O)[C@H](CCCCN)NC(=O)[C@H](Cc1c[nH]c2ccccc12)NC(C)=O)C(=O)N[C@@H](Cc1ccccc1)C(N)=O` [QBP1] (Ac-WKWWPGIF-NH2), the “effect … on metabolic activity” value in the data set with INS‐1E β‐cells [3] (setting [5]) was “no significant effect”.
Turning to `CC(C)C[C@H](NC(=O)[C@H](CC(N)=O)NC(=O)[C@H](CC(N)=O)NC(=O)[C@H](CO)NC(=O)[C@H](CO)NC(=O)[C@H](CCCNC(=N)N)NC(=O)[C@@H](NC(=O)[C@H](CC(C)C)NC(=O)[C@H](Cc1ccccc1)NC(=O)[C@H](CC(N)=O)NC(=O)[C@H](C)NC(=O)[C@H](CC(C)C)NC(=O)[C@H](CCCNC(=N)N)NC(=O)[C@H](CCC(N)=O)NC(=O)[C@@H](NC(=O)[C@H](C)NC(=O)[C@@H]1CSSC[C@H](NC(=O)[C@@H](N)CCCCN)C(=O)N[C@@H](CC(N)=O)C(=O)N[C@@H]([C@@H](C)O)C(=O)N[C@@H](C)C(=O)N[C@@H]([C@@H](C)O)C(=O)N1)[C@@H](C)O)C(C)C)C(=O)NCC(=O)N1CCC[C@H]1C(=O)N[C@H](C(=O)N[C@@H](CC(C)C)C(=O)N1CCC[C@H]1C(=O)N1CCC[C@H]1C(=O)N[C@H](C(=O)N[C@@H](CC(N)=O)C(=O)N[C@H](C(=O)NCC(=O)N[C@@H](CO)C(=O)N[C@@H](CC(N)=O)C(=O)N[C@H](C(=O)N[C@@H](Cc1ccc(O)cc1)C(N)=O)[C@@H](C)O)C(C)C)[C@@H](C)O)C(C)C` [rIAPP, reference compound], the “effect … on metabolic activity” value in the data set with INS‐1E β‐cells [3] was “did not affect metabolic activity”.
As to D‐ANFLVH, in the data set with Rin1056A β‐cells, the “molar excess relative to IAPP required to prevent toxicity” value is “ten‐fold molar excess”.
On to FLPNF, for which, in data set [4], the “concentration required to reduce hIAPP‐induced cytotoxicity” value is given as “approximately 200 µM”.
In the case of epigallocatechin‐3‐gallate [EGCG], the “slowing of the rate of hIAPP oligomerization (NMR signal loss)” value at hIAPP is listed as ~50%.
